Measured values taken from patent US20040072848A1, “Methods of treating irritable bowel syndrome and functional dyspepsia” (priority 2003, published 2004).

Tested on: Zymosan-sensitized rats
Assay: Rodent model of zymosan-induced hyperalgesia: visceromotor response to colorectal distention
Format: in vivo, Sprague-Dawley rats
Conditions: two doses (time 0 and 16 h), intracolonic zymosan, CRD 80 mm Hg, 20 s, 4 h after zymosan, expressed as percentage of control, baseline = 100%
Protocol: FIG. 1 is a graphical representation of the results of a study conducted in Zymosan-sensitized rats comparing the effect of (E)-4-(1,3-bis(cyclohexylmethyl)-1,2,3,6-tetrahydro-2,6-dioxo-9H-purin-8-yl)cinnamic acid nonaethylene glycol methyl ether ester ([…] and 25 mg/kg) versus vehicle. Results are reported as response to colorectal distention (CRD) (as a percent of control) with increasing dosage of 0, 12.5, and 25 mg/kg of compound (sensitized --▪--) as compared to baseline (--♦--).
Protocol for Evaluation of (E)-4-(1,3-bis(cyclohexylmethyl)-1,2,3,6-tetrahydro-2,6-dioxo-9H-purin-8-yl)cinnamic acid nonaethylene glycol methyl ether ester in a Rodent Model of Zymosan-Induced Hyperalgesia […]
The descending colon and rectum were distended by pressure-controlled inflation of a 7-8-cm-long flexible latex balloon tied around a flexible tube. […] Intracolonic pressure was continuously monitored by the aid of a pressure control device. Response was, quantified as the visceromotor response (VMR), a contraction of the abdominal and hindlimb musculature. EMG activity produced by contraction of the external oblique musculature was quantified using Spike2 software (Cambridge Electronic Designs). Each distension trial lasted 60 seconds, and EMG activity was quantitated in 1-second bins for 20 seconds before distension (baseline), during distention, and 20 seconds after distention. […]

With COCCOCCOCCOCCOCCOCCOCCOCCOCCOC(=O)/C=C/c1ccc(-c2nc3c(=O)n(CC4CCCCC4)c(=O)n(CC4CCCCC4)c3[nH]2)cc1 [(E)-4-(1,3-bis(cyclohexylmethyl)-1,2,3,6-tetrahydro-2,6-dioxo-9H-purin-8-yl)cinnamic acid nonaethylene glycol methyl ether ester] the “response to colorectal distention (CRD), visceromotor response” value (12.5 mg/kg oral gavage) was “decreased the response to colorectal distention down to baseline levels” and the “response to colorectal distention (CRD), visceromotor response” value (25 mg/kg oral gavage) was “decreased the response to colorectal distention down to baseline levels”.
